In ChEMBL document CHEMBL1155295, “Benzo[c][2,7]naphthyridines as inhibitors of PDK-1” (Bioorg Med Chem Lett, 2009):

What follows are compounds tested against T1, 3-phosphoinositide-dependent protein kinase 1 (Homo sapiens, UniProt O15530) (assay: Inhibition of PDPK1 by ELISA assay).
T1 sequence (O15530 whole entry): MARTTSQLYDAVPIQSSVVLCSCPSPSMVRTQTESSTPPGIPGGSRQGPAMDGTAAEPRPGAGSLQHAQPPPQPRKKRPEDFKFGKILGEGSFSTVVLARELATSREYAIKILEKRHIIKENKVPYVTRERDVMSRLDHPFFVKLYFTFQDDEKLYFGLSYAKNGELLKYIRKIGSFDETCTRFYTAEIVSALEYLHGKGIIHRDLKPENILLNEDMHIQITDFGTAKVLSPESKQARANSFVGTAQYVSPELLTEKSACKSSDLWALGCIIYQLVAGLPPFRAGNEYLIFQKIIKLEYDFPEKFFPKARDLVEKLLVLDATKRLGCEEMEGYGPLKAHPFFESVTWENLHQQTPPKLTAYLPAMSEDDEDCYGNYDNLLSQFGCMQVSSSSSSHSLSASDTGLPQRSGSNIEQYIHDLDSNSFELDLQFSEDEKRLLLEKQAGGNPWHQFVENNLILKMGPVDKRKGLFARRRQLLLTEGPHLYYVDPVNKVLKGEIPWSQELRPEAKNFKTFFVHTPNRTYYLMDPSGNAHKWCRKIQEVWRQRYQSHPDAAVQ
With `COc1cc2c(cc1OCc1ccccc1)ncc1c(N)nc(-c3cccnc3)cc12` the IC50 was 146 nM.
For `COc1cc2ncc3c(N)nc(-c4cncc(Br)c4)cc3c2cc1OC`, the IC50 was 65 nM.
`COc1cc2c(cc1OCCCN1CCCCC1)ncc1c(N)nc(-c3cccnc3)cc12` was tested, and the IC50 was 144 nM.
For `COc1cc2ncc3c(N)nc(-c4cncc(Nc5ccccc5OCc5ccccc5)c4)cc3c2cc1OC`, the IC50 was over 1000 nM.
In the case of `COc1cc2ncc3c(N)nc(-n4ccnc4)cc3c2cc1OC`, the IC50 is reported as 100 nM.
Compound `COc1cc2ncc3c(N)nc(-c4ccccn4)cc3c2cc1OC` has an IC50 of over 100 nM.
With `COc1cc2ncc3c(N)nc(-c4ccc(N)nc4)cc3c2cc1OC` the IC50 was over 1000 nM.
Compound `COc1cc2ncc3c(N)nc(-c4ccoc4)cc3c2cc1OC` has an IC50 of over 1000 nM.
For `COc1cc2ncc3c(N)nc(-c4cccnc4)cc3c2cc1OC`, the IC50 was 35 nM.
`COc1cc2ncc3c(N)nc(-c4cncc(Nc5ccccc5F)c4)cc3c2cc1OC` gave an IC50 of 30 nM.
For `COc1cc2ncc3c(N)nc(-c4cncc(N)c4)cc3c2cc1OC`, the IC50 was 26 nM.
